Source: patent publication US20190369111A1, “MOLECULAR KINETICS EVALUATION METHOD AND SCREENING METHOD” (Tokyo University of Science Foundation, priority 2016, published 2019)

Biological target: T1, MDM2 protein (Mus musculus, UniProt P23804)
T1 construct: administered intraperitoneally to C57BL/6J wild-type mice; from tissue; host or cells: C57BL/6J wild-type mice: liver, kidneys, spleen, heart
Experiment: Degradation of MDM2 protein in each tissue of mouse after administration, Western blot analysis
Type: in vivo
Conditions: 48 hours after administration
Method: TIBC-CANDDY_MLN was dissolved in DMSO immediately before administration, and then dissolved in corn oil (Code No. 25606-55, Nacalai Tesque) so that the concentration of DMSO was 10 vol %, and then a dose of 50 mg/kg body weight or 100 mg/kg body weight was administered intraperitoneally to C57BL/6J wild-type mice (7 to 8 weeks old, male) (CLEA Japan, Inc.) (n=3). As a control, an injection carrier (corn oil containing 10 vol % DMSO) was used. The mice were kept under an environment of ad libitum access to food and water. The mice were dissected under deep anesthesia by Somnopentyl (Kyoritsu Seiyaku Corporation) 48 hours after administration. Abdominal section was performed, and then the liver, kidneys, spleen, and heart were sequentially extracted and flash frozen in liquid nitrogen. Each tissue frozen in liquid nitrogen was stored in a deep freezer at −80° C.
The frozen tissues (spleen: 0.02 g, other tissues: 0.04 g) were each frozen and triturated, and then 1×TKM tissue lysis buffer (50 mM triethanolamine (pH 7.8), 50 mM KCl, 5 mM MgCl2, 0.25 M sucrose, 1 mM PMSF, protein inhibitors cocktail-EDTA free (Code No. 03969-21, Nacalai Tesque), 1 mM DTT, and 5 μL/mL recombinant RNase inhibitor (40 U/μL, Cat No. 2313A, Lot No. K8402DA, TAKARA Bio)) were added in an amount of 490 μL for the spleen and 980 μL for the others, and dissolved by rotation for 15 minutes (1 rpm, 25° C.). Then, the resultant product was subjected to centrifugation (at 3000 rpm×15 minutes, 4° C.), and the supernatants (each tissue extract) was collected. The concentration of proteins in each tissue extract was quantified with a spectrophotometer using each tissue extract that had been diluted 20 times using DEPC-treated water.
Each tissue extract collected was subjected to Western blot analysis. An SDS-PAGE gel was prepared using TGX™ FastCast™ Acrylamide Kit, 12% (Bio-Rad). Electrophoresis samples were prepared in a 6×SDS-PAGE sample buffer (62.5 mM Tris-HCl pH 6.8, 2% SDS, 5% 2-mercaptoethanol, 10% glycerol, 0.25% BPB), and placed on a heat block at 95° C. for 5 minutes. The electrophoresis samples prepared were applied at 50 μg/well for detecting GAPDH, and at 100 μg/well for other detection. […]
After electrophoresis, proteins were transferred to a PVDF membrane (Immobion™-P, Millipore) under conditions of 100 V and 1.5 hours using a tank-type blotting device and a transfer buffer (25 mM Tris-HCl, 195 mM glycine, 0.01% SDS, 15% methanol). […] Subsequently, the membrane was treated with a chemiluminescence reagent Immobilon™ Western (Millipore), and then chemiluminescence was detected using a lumino image analyzer LAS-3000 (FUJIFILM Corporation). Detected bands were quantified with an image processing software ImageJ (NIH).

T1 sequence (P23804 whole entry): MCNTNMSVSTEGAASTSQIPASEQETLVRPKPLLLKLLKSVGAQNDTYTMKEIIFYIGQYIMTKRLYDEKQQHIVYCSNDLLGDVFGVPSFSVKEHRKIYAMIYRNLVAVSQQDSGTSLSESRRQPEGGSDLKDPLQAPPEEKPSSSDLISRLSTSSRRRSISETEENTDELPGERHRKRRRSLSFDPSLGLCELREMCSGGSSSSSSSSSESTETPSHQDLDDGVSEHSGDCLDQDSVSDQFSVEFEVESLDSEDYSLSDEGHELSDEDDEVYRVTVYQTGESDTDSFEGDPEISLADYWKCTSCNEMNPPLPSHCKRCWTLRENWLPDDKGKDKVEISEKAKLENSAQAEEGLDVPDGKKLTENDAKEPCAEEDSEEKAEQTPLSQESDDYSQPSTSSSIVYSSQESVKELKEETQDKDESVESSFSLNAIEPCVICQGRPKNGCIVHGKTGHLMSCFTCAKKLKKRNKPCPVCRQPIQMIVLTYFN

## CC(C)C[C@H](NC(=O)CNC(=O)c1cc(Cl)ccc1Cl)C(=O)NCCCCCCC(=O)Nc1ccc(C(=O)/C=C/c2ccc(I)cc2)cc1 [TIBC-CANDDY_MLN]
Intraperitoneal 50 or 100 mg/kg body weight, heart
  amount of MDM2 protein in heart: reduced in a concentration dependent manner
Intraperitoneal 50 or 100 mg/kg body weight, kidneys
  amount of MDM2 protein in kidneys: reduction of the target was not found
Intraperitoneal 50 or 100 mg/kg body weight, spleen
  amount of MDM2 protein in spleen: reduced in a concentration dependent manner
intraperitoneal, only at a dose of 100 mg/kg body weight, liver
  amount of MDM2 protein in liver: reduced slightly
